Experimental findings from patent publication US10633419B2, “Immunomodulators” (BRISTOL-MYERS SQUIBB COMPANY, priority 2014, dated 2020) are described below.

The structures appear in SMILES notation. Starred links: 1 amine or outer side, 2 acyl side, 3 side chain; linkers in the order of their positions; H or OH if unused. Positions of bridges follow the written chain, without caps; N, C: chain ends. Non-standard residues stand in square brackets, D forms with d. Residues, ends and D or L forms follow the SMILES beside them. *: point of attachment. δOrn(Nα-Octadecanedioyl) = O=C(O)CCCCCCCCCCCCCCCCC(=O)N[C@@H](CCCN*)C(=O)O; Trp(1-CH2COOH) = N[C@@H](Cc1cn(CC(=O)O)c2ccccc12)C(=O)O; X14 = O=C(O)CCCCCCCCCCNC(=O)CCC(=O)NCCCOCCOCCOCCCN*; X9 = O=C(O)CCCCCCCCCCCCCCCCC(=O)N[C@@H](CCN*)C(=O)O; Phe(3,4,5-F3) = N[C@@H](Cc1cc(F)c(F)c(F)c1)C(=O)O; d(cisHyp) = O=C(O)[C@H]1C[C@@H](O)CN1; βAsp = O=C(O)[C@H](CC(=O)[*:2])N[*:1]; Palmitoyl = CCCCCCCCCCCCCCCC(=O)*; Hyp = O=C(O)[C@@H]1C[C@@H](O)CN1; NHhexadecyl = CCCCCCCCCCCCCCCCN*; NMeF = CN[C@@H](Cc1ccccc1)C(=O)O; NMeE = CN[C@@H](CCC(=O)O)C(=O)O; Undecanoyl = CCCCCCCCCCC(=O)*; NMeNle = CCCC[C@H](NC)C(=O)O; Pip = O=C(O)[C@@H]1CCCCN1; NMeA = CN[C@@H](C)C(=O)O; Aun = NCCCCCCCCCCC(=O)O; Dab = NCC[C@H](N)C(=O)O; Dap = NC[C@H](N)C(=O)O; PEG2 = NCCOCCOCCC(=O)O

The target of the first test is T1, PD-L1 (Homo sapiens, UniProt Q9NZQ7).
T1 construct: hPDL1(19-239)-TVMV-His; made in house; host or cells: HEK293T
T1 sequence (Q9NZQ7 with tags, fused parts or gaps): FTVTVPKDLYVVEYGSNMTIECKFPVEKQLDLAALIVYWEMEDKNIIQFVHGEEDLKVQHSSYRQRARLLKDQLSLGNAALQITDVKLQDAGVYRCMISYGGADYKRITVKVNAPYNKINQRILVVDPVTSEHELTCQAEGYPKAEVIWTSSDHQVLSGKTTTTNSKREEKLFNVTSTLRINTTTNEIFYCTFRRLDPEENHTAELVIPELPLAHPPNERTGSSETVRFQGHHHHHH
The test can be described thus: PD-1/PD-L1 Homogenous Time-Resolved Fluorescence (HTRF) binding assay (PD-1-Ig/PD-L1-His). Conditions: inhibition of PD-1-Ig binding to PD-L1-TVMV-His; value given as number; read-out: HTRF IC50. The method, boiled down: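 HTRF competition in dPBS with 0.1% BSA and 0.05% Tween-20: 20 nM PD-1-Ig added after 15 min compound pre-incubation with 10 nM PD-L1-His, then another 15 min. Signal (665/620 nm) after 30 min with APC anti-His (20 nM) and Eu anti-Ig (1 nM).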
For orientation: Time-resolved FRET reads energy transfer from a long-lived donor to a nearby acceptor.
For orientation: IC50 means the concentration that gives 50% inhibition. On to `CCCCCCCCCCC(=O)NCCCC[C@H](NC(=O)[C@H](CC(=O)O)NC(=O)CNC(=O)[C@@H]1CSCC(=O)N[C@@H](Cc2ccc(O)cc2)C(=O)N(C)[C@@H](C)C(=O)N[C@@H](CC(N)=O)C(=O)N2CCC[C@H]2C(=O)N[C@@H](Cc2cnc[nH]2)C(=O)N[C@@H](CCC(=O)O)C(=O)N2C[C@H](O)C[C@H]2C(=O)N[C@@H](Cc2c[nH]c3ccccc23)C(=O)N[C@@H](CO)C(=O)N[C@@H](Cc2c[nH]c3ccccc23)C(=O)N(C)[C@@H](CCCC)C(=O)N(C)[C@@H](CCCC)C(=O)N[C@@H](CC(C)C)C(=O)N1)C(N)=O` [Example 11009] ({CH2CO}-Y[NMeA]NPHE[Hyp]WSW[NMeNle][NMeNle]LCGDK(Undecanoyl)-NH2; thioether N-14), for which the IC50 was found to be 91.4 nM.

The same test, now with this note: inhibition of PD-1-Ig binding to PD-L1-TVMV-His; value given as range class; read-out: HTRF IC50.
Consider `CCCCCCCCCCCCCCCC(=O)NCCCC[C@H](NC(=O)[C@H](CC(=O)O)NC(=O)CNC(=O)CNC(=O)[C@@H]1CSCC(=O)N[C@@H](Cc2ccc(O)cc2)C(=O)N(C)[C@@H](C)C(=O)N[C@@H](CC(N)=O)C(=O)N2CCC[C@H]2C(=O)N[C@@H](CCN)C(=O)N[C@@H](CC(C)C)C(=O)N2C[C@H](O)C[C@H]2C(=O)N[C@@H](Cc2c[nH]c3ccccc23)C(=O)N[C@@H](CO)C(=O)N[C@@H](Cc2c[nH]c3ccccc23)C(=O)N(C)[C@@H](CCCC)C(=O)N(C)[C@@H](CCCC)C(=O)N[C@@H](CCCNC(=N)N)C(=O)N1)C(N)=O` [Example 11026] ({CH2CO}-Y[NMeA]NP[Dab]L[Hyp]WSW[NMeNle][NMeNle]RCGGDK(Palmitoyl)-NH2; thioether N-14), for which the IC50 lay in the range of 100 to 1600 nM.
For `CCCC[C@H]1C(=O)N(C)[C@@H](CCCC)C(=O)N[C@@H](CC(C)C)C(=O)N[C@H](C(=O)NCCCOCCOCCOCCCNC(=O)CCC(=O)NCCCCCCCCCCC(=O)O)CSCC(=O)N[C@@H](Cc2ccc(O)cc2)C(=O)N(C)[C@@H](C)C(=O)N[C@@H](CCC(=O)O)C(=O)N2CCC[C@H]2C(=O)N[C@@H](Cc2cnc[nH]2)C(=O)N[C@@H](CCCCN)C(=O)N2C[C@H](O)C[C@H]2C(=O)N[C@@H](Cc2c[nH]c3ccccc23)C(=O)N[C@@H](CCCCN)C(=O)N[C@@H](Cc2cn(CC(=O)O)c3ccccc23)C(=O)N1C` [Example 11139] ({CH2CO}-Y[NMeA]EPHK[Hyp]WK[Trp(1-CH2COOH)][NMeNle][NMeNle]LC-X14; thioether N-14), the IC50 was 10 to 99 nM.
For the compound `CCCCCCCCCCCCCCCCNC(=O)CCCCCCCCCCNC(=O)CNC(=O)[C@@H]1CSCC(=O)N[C@@H](Cc2ccc(O)cc2)C(=O)N(C)[C@@H](C)C(=O)N[C@@H](CC(N)=O)C(=O)N2CCC[C@H]2C(=O)N[C@@H](Cc2cnc[nH]2)C(=O)N[C@@H](CC(C)C)C(=O)N2C[C@H](O)C[C@H]2C(=O)N[C@@H](Cc2c[nH]c3ccccc23)C(=O)N[C@@H](CO)C(=O)N[C@@H](Cc2c[nH]c3ccccc23)C(=O)N(C)[C@@H](CCCC)C(=O)N(C)[C@@H](CCCC)C(=O)N[C@@H](CCCNC(=N)N)C(=O)N1` [Example 11112] ({CH2CO}-Y[NMeA]NPHL[Hyp]WSW[NMeNle][NMeNle]RCG[Aun]-NHhexadecyl; thioether N-14), the IC50 is 100 to 1600 nM.
On the same count and under the same terms, the same measure for `CCCC[C@H]1C(=O)N(C)[C@@H](CCCC)C(=O)N[C@@H](CC(=O)O)C(=O)N[C@H](C(=O)N[C@@H](Cc2cn(CCC(NC(=O)CCCCCCCCCCCCCCCCC(=O)O)C(=O)O)nn2)C(=O)O)CSCC(=O)N[C@@H](Cc2ccc(O)cc2)C(=O)N(C)[C@@H](C)C(=O)N[C@@H](CC(N)=O)C(=O)N2CCC[C@H]2C(=O)N[C@@H](CN)C(=O)N[C@@H](CC(C)C)C(=O)N2C[C@H](O)C[C@H]2C(=O)N[C@@H](Cc2c[nH]c3ccccc23)C(=O)N[C@@H](CCN)C(=O)N[C@@H](Cc2cn(CC(=O)O)c3ccccc23)C(=O)N1C` (stereo partly shown) [Example 13131]: 10 to 99 nM; for `CCCC[C@H]1C(=O)N(C)[C@@H](CCCC)C(=O)N[C@@H](CC(C)C)C(=O)N[C@H](C(=O)NCC(=O)N[C@@H](CC(=O)NCCC[C@H](NC(=O)CCCCCCCCCCCCCCCCC(=O)O)C(=O)O)C(=O)O)CSCC(=O)N[C@@H](Cc2ccc(O)cc2)C(=O)N2CCCC[C@H]2C(=O)N[C@@H](CC(N)=O)C(=O)N2CCC[C@H]2C(=O)N[C@@H](CN)C(=O)N[C@@H](CC(C)C)C(=O)N2C[C@H](O)C[C@H]2C(=O)N[C@@H](Cc2c[nH]c3ccccc23)C(=O)N[C@@H](CCN)C(=O)N[C@@H](Cc2cn(CC(=O)O)c3ccccc23)C(=O)N1C` [Example 13141] ({CH2CO}-Y[Pip]NP[Dap]L[Hyp]W[Dab][Trp(1-CH2COOH)][NMeNle][NMeNle]LCGD(δOrn(Nα-Octadecanedioyl))-OH; thioether N-14): 100 to 1600 nM; for `CCCC[C@H]1C(=O)N(C)[C@@H](CCCC)C(=O)N[C@@H](CC(C)C)C(=O)N[C@H](C(=O)NCCCCCCCCCCC(=O)N[C@@H](CC(=O)O)C(=O)O)CSCC(=O)N[C@@H](Cc2ccc(O)cc2)C(=O)N(C)[C@@H](C)C(=O)N[C@@H](CC(N)=O)C(=O)N2CCC[C@H]2C(=O)N[C@@H](Cc2cnc[nH]2)C(=O)N[C@@H](CCC(=O)O)C(=O)N2C[C@H](O)C[C@H]2C(=O)N[C@@H](Cc2c[nH]c3ccccc23)C(=O)N[C@@H](CCN)C(=O)N[C@@H](Cc2c[nH]c3ccccc23)C(=O)N1C` [Example 11129] ({CH2CO}-Y[NMeA]NPHE[Hyp]W[Dab]W[NMeNle][NMeNle]LC[Aun]D-OH; thioether N-14): 10 to 99 nM.
On to `CCCC[C@H]1C(=O)N(C)[C@@H](CCCC)C(=O)N[C@@H](CC(C)C)C(=O)N[C@H](C(=O)NCC(=O)N[C@@H](CC(=O)NCCOCCOCCC(=O)NCC[C@H](NC(=O)CCCCCCCCCCCCCCCCC(=O)O)C(=O)O)C(=O)O)CSCC(=O)N[C@@H](Cc2ccc(O)cc2)C(=O)N2CCCC[C@H]2C(=O)N[C@@H](CC(N)=O)C(=O)N2CCC[C@H]2C(=O)N[C@@H](CN)C(=O)N[C@@H](CC(C)C)C(=O)N2C[C@H](O)C[C@H]2C(=O)N[C@@H](Cc2c[nH]c3ccccc23)C(=O)N[C@@H](CCN)C(=O)N[C@@H](Cc2cn(CC(=O)O)c3ccccc23)C(=O)N1C` [Example 13163] ({CH2CO}-Y[Pip]NP[Dap]L[Hyp]W[Dab][Trp(1-CH2COOH)][NMeNle][NMeNle]LCG[βAsp][PEG2]-X9; thioether N-14), for which the IC50 fell in the range of 0.3 to 9.9 nM.
In the case of `CCCC[C@H]1C(=O)N2C[C@H](O)C[C@@H]2C(=O)N[C@@H](CC(=O)O)C(=O)N[C@@H](C(C)C)C(=O)N(C)[C@@H](Cc2ccccc2)C(=O)N[C@@H](Cc2ccc(O)cc2)C(=O)N(C)[C@@H](CCC(=O)O)C(=O)N[C@@H](Cc2c[nH]c3ccccc23)C(=O)N[C@@H](Cc2ccc(O)cc2)C(=O)N[C@@H](CC(C)C)C(=O)N[C@H](C(=O)NCC(=O)NCC(=O)NCC(=O)N[C@@H](CCCCN)C(N)=O)CSCC(=O)N[C@@H](Cc2cc(F)c(F)c(F)c2)C(=O)N(C)[C@@H](Cc2ccccc2)C(=O)N1C` [Example 3214] ({CH2CO}-[Phe(3,4,5-F3)][NMeF][NMeNle][d(cisHyp)]DV[NMeF]Y[NMeE]WYLCGGGK-NH2; thioether N-13), the IC50 is 0.3 to 9.9 nM.
The same measure, in the same setting: then `CCCC[C@H]1C(=O)N(C)[C@@H](CCCC)C(=O)N[C@@H](CC(C)C)C(=O)N[C@H](C(=O)NCC(=O)N[C@@H](Cc2cn(CCOCCOCCOCCOCCOCCOCCOCCOCCOCCOCCOCCNC(=O)CC[C@H](NC(=O)CCCCCCCCCCCCCCCCC(=O)O)C(=O)O)nn2)C(=O)O)CSCC(=O)N[C@@H](Cc2ccc(O)cc2)C(=O)N2CCCC[C@H]2C(=O)N[C@@H](CC(N)=O)C(=O)N2CCC[C@H]2C(=O)N[C@@H](CN)C(=O)N[C@@H](CC(C)C)C(=O)N2C[C@H](O)C[C@H]2C(=O)N[C@@H](Cc2c[nH]c3ccccc23)C(=O)N[C@@H](CCN)C(=O)N[C@@H](Cc2cn(CC(=O)O)c3ccccc23)C(=O)N1C` [Example 14104], with 100 to 1600 nM.
